Assay results reported in ChEMBL document CHEMBL5096151, “Phytocannabinoid Pharmacology: Medicinal Properties of Cannabis sativa Constituents Aside from the "Big Two"” (J Nat Prod, 2021).
pEC50, pIC50, pKi: −log10 of the molar value.

Legend:
Cannabinoid receptor 1 [1] = target: Cannabinoid receptor 1 (Mus musculus, UniProt P47746); assay: Agonist activity at CB1 receptor in albino MF1 mouse vas deferens assessed as inhibition of electrically evoked vas deferens contraction by incubated for 13 mins followed by electrical stimulation for 2 mins; type: functional
[2] = target: Transient receptor potential cation channel subfamily V member 5 (Homo sapiens, UniProt Q9NQA5); assay: Inhibition of TRPV5 channel (unknown origin) by Patch-clamp assay
Cannabinoid receptor 2 [3] = target: T1, Cannabinoid receptor 2 (Homo sapiens, UniProt P34972); assay: Agonist activity at CB2 receptor (unknown origin) expressed in CHO cell membranes assessed as increase in [35S]GTPgammaS binding incubated for 60 mins by liquid scintillation spectrometry analysis; type: functional, Membrane
[4] = target: T2, G-protein coupled receptor 55 (Homo sapiens, UniProt Q9Y2T6); assay: Antagonist activity at GPR55 (unknown origin) expressed in HEK293 cells assessed as LPI-stimulated ERK1/2 phosphorylation; type: functional, cell-based
Cannabinoid receptor 2 [5] = target: T1, Cannabinoid receptor 2; assay: Agonist activity at human CB2 receptor transfected in CHO cells assessed as inhibition of cyclic AMP production; type: functional, cell-based
[6] = target: 5-hydroxytryptamine receptor 1A (Rattus norvegicus, UniProt P19327); assay: Displacement of [35S]GTPgammaS from 5HT1A in Sprague-Dawley rat brainstem incubated for 60 mins by radioligand binding assay; type: tissue-based
[7] = target: 5-hydroxytryptamine receptor 1A (Homo sapiens, UniProt P08908); assay: Displacement of [35S]GTPgammaS from 5HT1A in […] incubated for 60 mins by radioligand binding assay; type: cell-based
Cannabinoid receptor 2 [8] = target: T1, Cannabinoid receptor 2; assay: Agonist activity at CB2 receptor (unknown origin) expressed in CHO cell membranes assessed as increase in [35S]GTPgammaS binding by measuring efficacy incubated for 60 mins by liquid scintillation spectrometry analysis relative to control; type: functional; conditions: Membrane, filed as agonist
[9] = target: T2, G-protein coupled receptor 55; assay: Antagonist activity at GPR55 (unknown origin) expressed in HEK293 cells assessed as LPI-stimulated ERK1/2 phosphorylation by measuring efficacy relative to control; type: functional, cell-based; conditions: filed as antagonist
[10] = target: 5-hydroxytryptamine receptor 1A (Rattus norvegicus) (UniProt P19327); assay: Displacement of [35S]GTPgammaS from 5HT1A in Sprague-Dawley rat brainstem by measuring efficacy incubated for 60 mins by radioligand binding assay relative to control; type: tissue-based
[11] = target: 5-hydroxytryptamine receptor 1A (Homo sapiens) (UniProt P08908); assay: Displacement of [35S]GTPgammaS from 5HT1A in […] by measuring efficacy incubated for 60 mins by radioligand binding assay relative to control; type: cell-based
Cannabinoid receptor 2 [12] = target: T1, Cannabinoid receptor 2; assay: Inhibition of human CB2 receptor; type: functional; conditions: concentration not given here
[13] = target: T3, Transient receptor potential cation channel subfamily V member 1 (Homo sapiens, UniProt Q8NER1); assay: Agonist activity at ionomycin-stimulated TRPV1 (unknown origin) activation
[14] = target: T3, Transient receptor potential cation channel subfamily V member 1; assay: Agonist activity at ionomycin-stimulated TRPV1 (unknown origin) activation assessed as efficacy relative to control; conditions: filed as agonist
[15] = target: T3, Transient receptor potential cation channel subfamily V member 1; assay: Agonist activity at ionomycin-stimulated TRPV1 (unknown origin) channel desensitization in presence of capsaicin
[16] = target: T4, Transient receptor potential cation channel subfamily V member 2 (Homo sapiens, UniProt Q9Y5S1); assay: Agonist activity at ionomycin-stimulated TRPV2 (unknown origin) activation
T4 sequence (Q9Y5S1 whole entry): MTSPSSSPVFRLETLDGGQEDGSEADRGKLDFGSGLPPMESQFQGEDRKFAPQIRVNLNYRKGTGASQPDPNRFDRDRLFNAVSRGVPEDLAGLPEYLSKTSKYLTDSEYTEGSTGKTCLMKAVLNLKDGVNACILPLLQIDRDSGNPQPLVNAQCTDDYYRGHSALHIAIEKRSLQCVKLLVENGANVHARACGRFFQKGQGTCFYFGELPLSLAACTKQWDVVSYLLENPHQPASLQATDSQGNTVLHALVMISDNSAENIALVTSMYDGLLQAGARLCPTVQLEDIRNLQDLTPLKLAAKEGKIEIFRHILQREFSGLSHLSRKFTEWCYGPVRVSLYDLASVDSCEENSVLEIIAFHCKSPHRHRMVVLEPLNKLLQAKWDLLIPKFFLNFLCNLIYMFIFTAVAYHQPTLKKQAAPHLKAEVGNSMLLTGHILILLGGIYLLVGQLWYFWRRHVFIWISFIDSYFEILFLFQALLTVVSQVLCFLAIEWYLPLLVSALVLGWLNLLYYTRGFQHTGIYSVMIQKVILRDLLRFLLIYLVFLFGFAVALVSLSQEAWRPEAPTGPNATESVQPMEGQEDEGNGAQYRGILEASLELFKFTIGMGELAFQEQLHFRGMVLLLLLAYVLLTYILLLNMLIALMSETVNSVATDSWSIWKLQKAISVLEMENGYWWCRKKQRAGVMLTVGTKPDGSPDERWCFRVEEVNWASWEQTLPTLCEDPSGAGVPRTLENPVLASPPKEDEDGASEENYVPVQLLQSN

[17] = target: T5, Transient receptor potential cation channel subfamily V member 2 (Homo sapiens) (UniProt Q9Y5S1); assay: Agonist activity at ionomycin-stimulated TRPV2 (unknown origin) activation assessed as efficacy relative to control; conditions: filed as agonist
T5 sequence (whole entry): T4 sequence (Q9Y5S1 whole entry)

[18] = target: T4, Transient receptor potential cation channel subfamily V member 2; assay: Agonist activity at ionomycin-stimulated TRPV2 (unknown origin) channel desensitization in presence of lysophosphatidylcholine
[19] = target: T6, Transient receptor potential cation channel subfamily V member 3 (Homo sapiens, UniProt Q8NET8); assay: Agonist activity at ionomycin-stimulated TRPV3 (unknown origin) activation
T6 sequence (Q8NET8 whole entry): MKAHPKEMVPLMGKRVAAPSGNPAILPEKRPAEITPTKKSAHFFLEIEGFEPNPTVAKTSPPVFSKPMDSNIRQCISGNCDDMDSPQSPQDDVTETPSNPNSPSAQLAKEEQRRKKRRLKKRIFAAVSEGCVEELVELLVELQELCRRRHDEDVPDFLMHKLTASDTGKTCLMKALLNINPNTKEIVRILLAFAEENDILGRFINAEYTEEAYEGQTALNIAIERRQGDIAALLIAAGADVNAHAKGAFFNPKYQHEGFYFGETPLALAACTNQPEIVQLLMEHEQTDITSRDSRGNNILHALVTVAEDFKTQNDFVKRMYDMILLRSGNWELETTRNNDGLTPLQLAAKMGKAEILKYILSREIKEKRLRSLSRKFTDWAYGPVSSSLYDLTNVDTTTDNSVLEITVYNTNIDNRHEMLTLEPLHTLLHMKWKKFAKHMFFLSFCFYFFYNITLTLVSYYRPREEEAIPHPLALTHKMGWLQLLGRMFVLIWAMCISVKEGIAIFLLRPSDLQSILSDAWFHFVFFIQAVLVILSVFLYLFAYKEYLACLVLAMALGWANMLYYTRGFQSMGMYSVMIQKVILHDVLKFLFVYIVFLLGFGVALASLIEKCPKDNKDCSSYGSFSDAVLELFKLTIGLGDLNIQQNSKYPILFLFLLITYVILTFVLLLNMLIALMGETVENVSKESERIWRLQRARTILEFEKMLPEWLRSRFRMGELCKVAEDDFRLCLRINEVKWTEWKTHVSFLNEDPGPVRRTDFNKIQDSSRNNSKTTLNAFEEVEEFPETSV

[20] = target: T7, Transient receptor potential cation channel subfamily V member 3 (Homo sapiens) (UniProt Q8NET8); assay: Agonist activity at ionomycin-stimulated TRPV3 (unknown origin) activation assessed as efficacy relative to control; conditions: filed as agonist
T7 sequence (whole entry): T6 sequence (Q8NET8 whole entry)

[21] = target: T6, Transient receptor potential cation channel subfamily V member 3; assay: Agonist activity at ionomycin-stimulated TRPV3 (unknown origin) channel desensitization in presence of carvacrol
[22] = target: T8, Transient receptor potential cation channel subfamily V member 4 (Homo sapiens, UniProt Q9HBA0); assay: Agonist activity at ionomycin-stimulated TRPV4 (unknown origin) activation
[23] = target: T8, Transient receptor potential cation channel subfamily V member 4; assay: Agonist activity at ionomycin-stimulated TRPV4 (unknown origin) activation assessed as efficacy relative to control; conditions: filed as agonist
[24] = target: T8, Transient receptor potential cation channel subfamily V member 4; assay: Agonist activity at ionomycin-stimulated TRPV4 (unknown origin) channel desensitization in presence of 4alphaPDD
[25] = target: Transient receptor potential cation channel subfamily V member 6 (Homo sapiens, UniProt Q9H1D0); assay: Inhibition of TRPV6 channel (unknown origin) by Patch-clamp assay
[26] = target: T9, Transient receptor potential cation channel subfamily A member 1 (Homo sapiens, UniProt O75762); assay: Agonist activity at TRPA1 (unknown origin) activation
[27] = target: T9, Transient receptor potential cation channel subfamily A member 1; assay: Agonist activity at TRPA1 (unknown origin) activation assessed as efficacy relative to control; conditions: filed as agonist
[28] = target: T9, Transient receptor potential cation channel subfamily A member 1; assay: Agonist activity at TRPA1 (unknown origin) channel desensitization in presence of isothiocyanate
[29] = target: T9, Transient receptor potential cation channel subfamily A member 1; assay: Agonist activity at TRPA1 (unknown origin) channel desensitization in presence of icilin
[30] = target: T3, Transient receptor potential cation channel subfamily V member 1; assay: Agonist activity at TRPV1 (unknown origin) ion channel
[31] = target: T9, Transient receptor potential cation channel subfamily A member 1; assay: Agonist activity at TRPA1 (unknown origin) ion channel
[32] = target: Transient receptor potential cation channel subfamily M member 8 (Homo sapiens, UniProt Q7Z2W7); assay: Antagonist activity at TRPM8 (unknown origin) ion channel
Cannabinoid receptor 1 [33] = target: Cannabinoid receptor 1 (Homo sapiens, UniProt P21554); assay: Binding affinity to CB1 (unknown origin) receptor assessed as inhibition constant

T8 sequence (Q9HBA0 whole entry): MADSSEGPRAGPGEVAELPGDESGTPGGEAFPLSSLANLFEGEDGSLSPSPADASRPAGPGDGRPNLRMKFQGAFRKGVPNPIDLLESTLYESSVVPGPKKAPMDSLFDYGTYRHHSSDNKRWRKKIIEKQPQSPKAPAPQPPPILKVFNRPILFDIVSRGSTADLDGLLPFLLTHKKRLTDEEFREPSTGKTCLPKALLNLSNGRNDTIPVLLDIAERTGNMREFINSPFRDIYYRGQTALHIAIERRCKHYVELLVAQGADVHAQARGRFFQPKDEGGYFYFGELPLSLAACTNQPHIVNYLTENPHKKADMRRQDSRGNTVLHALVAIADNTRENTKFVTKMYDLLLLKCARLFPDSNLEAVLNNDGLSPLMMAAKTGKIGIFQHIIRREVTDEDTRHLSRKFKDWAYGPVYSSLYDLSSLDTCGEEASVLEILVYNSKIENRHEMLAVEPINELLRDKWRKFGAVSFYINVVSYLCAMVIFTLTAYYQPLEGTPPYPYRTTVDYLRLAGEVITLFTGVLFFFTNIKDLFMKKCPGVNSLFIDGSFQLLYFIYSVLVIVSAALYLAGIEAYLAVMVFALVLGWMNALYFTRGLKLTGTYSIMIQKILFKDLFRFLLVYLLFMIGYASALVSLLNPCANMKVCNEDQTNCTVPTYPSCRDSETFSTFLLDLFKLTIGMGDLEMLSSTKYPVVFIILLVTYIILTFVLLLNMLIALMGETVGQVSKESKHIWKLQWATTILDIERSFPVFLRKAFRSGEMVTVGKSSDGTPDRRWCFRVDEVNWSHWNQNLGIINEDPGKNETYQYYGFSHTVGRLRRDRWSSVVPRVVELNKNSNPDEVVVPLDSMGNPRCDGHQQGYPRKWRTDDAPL
T9 sequence (O75762 whole entry): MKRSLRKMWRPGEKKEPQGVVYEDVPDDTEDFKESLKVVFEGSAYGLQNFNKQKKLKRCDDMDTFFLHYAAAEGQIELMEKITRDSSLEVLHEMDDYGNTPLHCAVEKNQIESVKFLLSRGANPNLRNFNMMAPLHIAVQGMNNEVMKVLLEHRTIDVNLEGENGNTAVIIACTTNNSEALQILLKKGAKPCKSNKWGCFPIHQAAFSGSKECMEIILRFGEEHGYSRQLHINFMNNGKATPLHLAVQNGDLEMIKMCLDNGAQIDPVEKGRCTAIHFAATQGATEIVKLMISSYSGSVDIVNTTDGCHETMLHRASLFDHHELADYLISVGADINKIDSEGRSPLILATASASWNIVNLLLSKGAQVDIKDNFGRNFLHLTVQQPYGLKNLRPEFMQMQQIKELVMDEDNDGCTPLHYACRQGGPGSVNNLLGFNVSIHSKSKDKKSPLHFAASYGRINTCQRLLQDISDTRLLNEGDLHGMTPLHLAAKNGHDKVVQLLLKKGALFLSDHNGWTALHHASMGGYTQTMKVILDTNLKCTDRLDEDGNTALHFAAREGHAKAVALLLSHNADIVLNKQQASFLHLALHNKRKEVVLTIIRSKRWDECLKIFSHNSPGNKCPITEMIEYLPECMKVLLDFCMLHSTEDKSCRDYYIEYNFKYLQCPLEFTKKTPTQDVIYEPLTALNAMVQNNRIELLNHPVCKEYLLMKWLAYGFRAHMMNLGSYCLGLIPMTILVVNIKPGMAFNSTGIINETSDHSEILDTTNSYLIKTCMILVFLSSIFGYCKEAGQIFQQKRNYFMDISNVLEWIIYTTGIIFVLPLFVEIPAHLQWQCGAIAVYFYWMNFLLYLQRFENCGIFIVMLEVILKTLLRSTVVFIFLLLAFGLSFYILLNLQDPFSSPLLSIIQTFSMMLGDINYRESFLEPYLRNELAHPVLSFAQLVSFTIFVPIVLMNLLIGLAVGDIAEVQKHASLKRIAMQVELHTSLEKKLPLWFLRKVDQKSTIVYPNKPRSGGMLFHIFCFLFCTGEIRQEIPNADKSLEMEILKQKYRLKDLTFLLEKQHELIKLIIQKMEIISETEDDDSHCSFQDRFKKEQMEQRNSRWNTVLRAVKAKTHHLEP
T3 sequence (Q8NER1 whole entry): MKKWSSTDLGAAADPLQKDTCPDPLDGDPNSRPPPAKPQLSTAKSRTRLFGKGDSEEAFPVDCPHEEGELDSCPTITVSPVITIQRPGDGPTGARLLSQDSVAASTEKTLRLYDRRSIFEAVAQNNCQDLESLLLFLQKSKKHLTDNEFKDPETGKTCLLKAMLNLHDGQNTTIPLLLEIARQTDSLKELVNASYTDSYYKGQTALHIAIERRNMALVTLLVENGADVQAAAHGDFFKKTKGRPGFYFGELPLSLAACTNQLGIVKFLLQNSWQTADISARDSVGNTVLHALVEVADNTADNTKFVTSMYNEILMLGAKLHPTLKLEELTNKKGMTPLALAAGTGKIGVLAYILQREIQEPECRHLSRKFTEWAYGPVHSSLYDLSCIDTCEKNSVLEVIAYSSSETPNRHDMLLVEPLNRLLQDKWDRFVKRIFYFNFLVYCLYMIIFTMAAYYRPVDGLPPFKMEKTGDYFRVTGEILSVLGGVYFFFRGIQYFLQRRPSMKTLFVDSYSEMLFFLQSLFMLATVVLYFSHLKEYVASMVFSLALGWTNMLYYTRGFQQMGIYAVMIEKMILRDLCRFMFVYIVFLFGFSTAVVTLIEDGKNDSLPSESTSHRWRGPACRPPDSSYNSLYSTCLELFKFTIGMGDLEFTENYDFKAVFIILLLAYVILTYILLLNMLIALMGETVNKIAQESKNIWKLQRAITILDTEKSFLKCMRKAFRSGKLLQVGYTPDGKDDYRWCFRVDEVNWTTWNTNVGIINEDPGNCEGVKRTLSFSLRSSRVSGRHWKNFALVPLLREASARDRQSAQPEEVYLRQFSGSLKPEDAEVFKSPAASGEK
T1 sequence (P34972 whole entry): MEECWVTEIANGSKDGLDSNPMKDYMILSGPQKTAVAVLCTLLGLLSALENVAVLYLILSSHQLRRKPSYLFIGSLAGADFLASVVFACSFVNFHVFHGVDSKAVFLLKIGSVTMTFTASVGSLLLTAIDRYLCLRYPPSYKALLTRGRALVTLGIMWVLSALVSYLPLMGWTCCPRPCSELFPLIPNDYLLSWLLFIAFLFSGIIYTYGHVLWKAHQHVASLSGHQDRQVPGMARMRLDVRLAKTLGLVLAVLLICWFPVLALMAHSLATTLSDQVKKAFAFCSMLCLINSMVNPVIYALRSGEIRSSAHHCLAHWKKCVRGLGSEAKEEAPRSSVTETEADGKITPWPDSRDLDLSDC
T2 sequence (Q9Y2T6 whole entry): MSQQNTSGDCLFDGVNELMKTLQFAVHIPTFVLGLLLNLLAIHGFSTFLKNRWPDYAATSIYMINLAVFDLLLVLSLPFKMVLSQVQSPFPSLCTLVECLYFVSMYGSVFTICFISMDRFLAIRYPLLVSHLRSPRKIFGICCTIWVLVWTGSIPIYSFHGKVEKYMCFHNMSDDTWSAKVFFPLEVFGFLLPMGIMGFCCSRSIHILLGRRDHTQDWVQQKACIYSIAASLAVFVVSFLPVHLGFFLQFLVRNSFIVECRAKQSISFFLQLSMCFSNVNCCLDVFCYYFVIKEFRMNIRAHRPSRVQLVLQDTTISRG
Transient receptor potential cation channel subfamily V member 5, sequence (Q9NQA5 whole entry): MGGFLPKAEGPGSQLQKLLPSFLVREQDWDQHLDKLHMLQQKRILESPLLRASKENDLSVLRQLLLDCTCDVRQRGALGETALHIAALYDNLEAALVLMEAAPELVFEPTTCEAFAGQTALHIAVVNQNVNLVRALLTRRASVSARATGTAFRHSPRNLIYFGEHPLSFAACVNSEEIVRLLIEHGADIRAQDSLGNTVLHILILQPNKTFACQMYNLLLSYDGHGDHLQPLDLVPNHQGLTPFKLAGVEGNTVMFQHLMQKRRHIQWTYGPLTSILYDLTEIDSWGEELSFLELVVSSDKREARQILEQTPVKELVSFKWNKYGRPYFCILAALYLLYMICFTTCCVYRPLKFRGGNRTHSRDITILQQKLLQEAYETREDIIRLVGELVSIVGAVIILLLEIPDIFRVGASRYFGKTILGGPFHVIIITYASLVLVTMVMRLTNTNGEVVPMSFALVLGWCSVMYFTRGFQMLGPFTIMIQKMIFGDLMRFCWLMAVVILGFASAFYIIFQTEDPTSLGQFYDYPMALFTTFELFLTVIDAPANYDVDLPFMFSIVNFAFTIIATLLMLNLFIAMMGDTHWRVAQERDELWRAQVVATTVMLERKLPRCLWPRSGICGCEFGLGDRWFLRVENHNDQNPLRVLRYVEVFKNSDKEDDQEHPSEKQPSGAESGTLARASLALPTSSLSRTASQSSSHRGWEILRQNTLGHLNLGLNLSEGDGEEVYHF
5-hydroxytryptamine receptor 1A (Homo sapiens, UniProt P08908), sequence (P08908 whole entry): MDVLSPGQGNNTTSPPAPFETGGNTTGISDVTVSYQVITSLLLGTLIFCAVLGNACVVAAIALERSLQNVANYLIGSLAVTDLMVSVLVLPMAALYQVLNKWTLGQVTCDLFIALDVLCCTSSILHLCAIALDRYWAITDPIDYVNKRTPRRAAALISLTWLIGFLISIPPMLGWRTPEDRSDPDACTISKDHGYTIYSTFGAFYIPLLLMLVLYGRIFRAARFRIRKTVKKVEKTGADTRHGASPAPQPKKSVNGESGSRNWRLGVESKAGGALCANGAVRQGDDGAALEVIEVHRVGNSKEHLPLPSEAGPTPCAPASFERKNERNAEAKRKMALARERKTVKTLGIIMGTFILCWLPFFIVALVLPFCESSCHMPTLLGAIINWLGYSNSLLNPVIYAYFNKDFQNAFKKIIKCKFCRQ
5-hydroxytryptamine receptor 1A (Homo sapiens), sequence (P08908 whole entry): as above

Q: How did the pEC50 (Cannabinoid receptor 1 [1]) turn out when `CCCc1cc(O)c2c(c1)OC(C)(C)[C@@H]1CCC(C)=C[C@@H]21` [TETRAHYDROCANNABIVARIN] was run?
A: The pEC50 was 4.90.

Q: What about the pIC50 [2] of the same compound?
A: Its pIC50 is 5.32.

Q: What about the pEC50 (Cannabinoid receptor 2 [3]) of the same compound?
A: The pEC50 was 7.01.

Q: And the pEC50 [4]?
A: The pEC50 was 6.06.

Q: And the pEC50 (Cannabinoid receptor 2 [5])?
A: The pEC50 was 7.42.

Q: What about the pEC50 [6] of the same compound?
A: The pEC50 was 8.27.

Q: What about the pEC50 [7] of the same compound?
A: The pEC50 was 7.55.

Q: What about the Efficacy (Cannabinoid receptor 2 [8]) of the same compound?
A: The Efficacy was 40%.

Q: What about the Efficacy [9] of the same compound?
A: The Efficacy was 61%.

Q: What about the Efficacy [10] of the same compound?
A: Its Efficacy is 35%.

Q: And the Efficacy [11]?
A: Its Efficacy is 134%.

Q: What about the inhibition (Cannabinoid receptor 2 [12]) of the same compound?
A: Its inhibition is 0.143%.

Q: What about the pEC50 [13] of the same compound?
A: Its pEC50 is 5.82.

Q: What about the Efficacy [14] of the same compound?
A: Its Efficacy is 68%.

Q: What about the pIC50 [15] of the same compound?
A: The pIC50 was 5.89.

Q: What about the pEC50 [16] of the same compound?
A: Its pEC50 is 5.39.

Q: What about the Efficacy [17] of the same compound?
A: Its Efficacy is 74%.

Q: And the pIC50 [18]?
A: The pIC50 was 6.10.

Q: And the pEC50 [19]?
A: Its pEC50 is 5.42.

Q: And the Efficacy [20]?
A: The Efficacy was 72%.

Q: What about the pIC50 [21] of the same compound?
A: The pIC50 was 5.52.

Q: And the pEC50 [22]?
A: The pEC50 was 5.19.

Q: And the Efficacy [23]?
A: The Efficacy was 60%.

Q: And the pIC50 [24]?
A: The pIC50 was 5.49.

Q: What about the pIC50 [25] of the same compound?
A: The pIC50 was 5.03.

Q: And the pEC50 [26]?
A: Its pEC50 is 5.82.

Q: What about the Efficacy [27] of the same compound?
A: The Efficacy was 243%.

Q: And the pIC50 [28]?
A: The pIC50 was 5.51.

Q: And the pIC50 [29]?
A: The pIC50 was 6.06.

Q: What about the pEC50 [30] of the same compound?
A: The pEC50 was 6.70.

Q: What about the pEC50 [31] of the same compound?
A: Its pEC50 is 7.15.

Q: And the pIC50 [32]?
A: The pIC50 was 7.70.

Q: What about the pKi (Cannabinoid receptor 1 [33]) of the same compound?
A: Its pKi is 6.00.
